Source: the supplement of paper PMC13380429

Columns and labels:
Conditions in all cases: 72 h
Vero E6 [1] = assay: relative viability EC50 (midpoint between 100% and the lowest measured viability); higher = less toxic
Caco-2 [2] = assay: as above
U2OS [3] = assay: as above
HepG2 [4] = assay: as above
Calu-3 [5] = assay: as above
Vero E6 [6] = assay: drug sensitivity score (DSS) for viability; higher = more toxic; extreme values may be limits of the assay
Caco-2 [7] = assay: as above
U2OS [8] = assay: as above
HepG2 [9] = assay: as above
Calu-3 [10] = assay: as above
Vero E6 [11] = assay: cell viability relative to DMSO; higher = less toxic
Caco-2 [12] = assay: as above
U2OS [13] = assay: as above
HepG2 [14] = assay: as above
Calu-3 [15] = assay: as above

Row | SMILES | relative viability EC50 (Vero E6 [1]) | relative viability EC50 (Caco-2 [2]) | relative viability EC50 (U2OS [3]) | relative viability EC50 (HepG2 [4]) | relative viability EC50 (Calu-3 [5]) | drug sensitivity score (Vero E6 [6]) | drug sensitivity score (Caco-2 [7]) | drug sensitivity score (U2OS [8]) | drug sensitivity score (HepG2 [9]) | drug sensitivity score (Calu-3 [10]) | cell viability (Vero E6 [11]; 1 nM) | cell viability (Vero E6 [11]; 10 nM) | cell viability (Vero E6 [11]; 100 nM) | cell viability (Vero E6 [11]; 1000 nM) | cell viability (Vero E6 [11]; 10000 nM) | cell viability (Caco-2 [12]; 1 nM) | cell viability (Caco-2 [12]; 10 nM) | cell viability (Caco-2 [12]; 100 nM) | cell viability (Caco-2 [12]; 1000 nM) | cell viability (Caco-2 [12]; 10000 nM) | cell viability (U2OS [13]; 1 nM) | cell viability (U2OS [13]; 10 nM) | cell viability (U2OS [13]; 100 nM) | cell viability (U2OS [13]; 1000 nM) | cell viability (U2OS [13]; 10000 nM) | cell viability (HepG2 [14]; 1 nM) | cell viability (HepG2 [14]; 10 nM) | cell viability (HepG2 [14]; 100 nM) | cell viability (HepG2 [14]; 1000 nM) | cell viability (HepG2 [14]; 10000 nM) | cell viability (Calu-3 [15]; 1 nM) | cell viability (Calu-3 [15]; 10 nM) | cell viability (Calu-3 [15]; 100 nM) | cell viability (Calu-3 [15]; 1000 nM) | cell viability (Calu-3 [15]; 10000 nM)
1 | CC(C)(C)NS(=O)(=O)c1cncc(-c2cc(F)c3nc(N)nn3c2)c1 | > 10 µM | > 10 µM | > 10 µM | > 10 µM | > 10 µM | 0 | 0 | 0 | 0 | 0 | 93.5% | 99.3% | 94% | 96.3% | 100% | 95.6% | 91.8% | 106% | 87.7% | 107% | 98.5% | 92.5% | 97.9% | 95.8% | 95.9% | 94.7% | 106% | 90.7% | 101% | 105% | 96.1% | 82.5% | 95.2% | 84.2% | 97.1%
2 | CC(C)(N)c1nc(-c2ccc(OC(F)(F)F)cc2)c[nH]1 | > 10 µM | > 10 µM | > 10 µM | > 10 µM | > 10 µM | 0 | 0.1 | 0 | 0 | 0 | 95.9% | 97.7% | 94.6% | 94.9% | 107% | 95.8% | 96.5% | 91.3% | 92% | 88% | 98.2% | 94.1% | 96.5% | 95.6% | 95.4% | 96% | 107% | 101% | 117% | 104% | 107% | 102% | 90.1% | 105% | 113%
3 | CC(C)C1=C2[C@H]3CC[C@@H]4[C@@]5(C)CC[C@H](OC(=O)CC(C)(C)C(=O)O)C(C)(C)[C@@H]5CC[C@@]4(C)[C@]3(C)CC[C@@]2([C@@H](O)CN(CCN(C)C)Cc2ccc(Cl)cc2)CC1=O | > 10 µM | > 10 µM | > 10 µM | > 10 µM | > 10 µM | 0 | 0 | 0 | 0 | 0 | 102% | 106% | 106% | 99.5% | 105% | 96.3% | 98.7% | 97.7% | 100% | 97.2% | 95.3% | 97.8% | 94.3% | 94.9% | 94.2% | 96.7% | 105% | 100% | 99.6% | 95.4% | 95.7% | 91.8% | 106% | 104% | 105%
4 | CCC(CC)Nc1cc(C)nc(Oc2c(C)cc(C)cc2C)c1C | > 10 µM | > 10 µM | > 10 µM | > 10 µM | > 10 µM | 0 | 0 | 0 | 0 | 0 | 96.8% | 96.1% | 90.1% | 94.3% | 109% | 90.2% | 96.6% | 101% | 99.9% | 100% | 104% | 95.7% | 102% | 98.5% | 97% | 94.9% | 104% | 93.1% | 108% | 103% | 94.3% | 94.5% | 98.6% | 96.5% | 100%
5 | CCCCOc1c(C(=O)c2c(F)cc(C)cc2F)c[nH]c2nncc1-2 | > 10 µM | > 10 µM | > 10 µM | > 10 µM | > 10 µM | 1.6 | 2.7 | 0 | 2.9 | 0 | 102% | 97.4% | 94.1% | 84.5% | 84.9% | 104% | 102% | 94% | 82.9% | 77.7% | 98% | 101% | 102% | 113% | 95.6% | 96.7% | 99.8% | 95.1% | 81.4% | 80.8% | 94.9% | 86.1% | 71.1% | 60.7% | 89.4%
6 | CCCCn1c(-c2ccccc2)nc(-c2ccccc2)c1CN(Cc1ccc2c(c1)OCO2)Cc1ccc2c(c1)OCO2 | > 10 µM | > 10 µM | > 10 µM | > 10 µM | > 10 µM | 0 | 1.2 | 0.2 | 0 | 0 | 106% | 101% | 100% | 101% | 97.7% | 94.2% | 105% | 95.1% | 92.7% | 77.5% | 95.8% | 97.6% | 91.4% | 94% | 85.6% | 102% | 102% | 96.3% | 95.5% | 89.4% | 107% | 102% | 107% | 101% | 96.7%
7 | CCCN1CCO[C@@H]2c3cc(O)ccc3OC[C@H]21 | > 10 µM | > 10 µM | > 10 µM | > 10 µM | > 10 µM | 0 | 0 | 0 | 0 | 0 | 99.7% | 101% | 102% | 101% | 95.7% | 101% | 116% | 97.8% | 109% | 102% | 102% | 106% | 97.1% | 102% | 99.7% | 106% | 104% | 100% | 92% | 105% | 102% | 110% | 95% | 105% | 90.6%
8 | CC[C@H](C)n1cc(C)c2c(C(=O)NCc3c(C)cc(C)[nH]c3=O)cc(-c3ccc(N4CCNCC4)nc3)cc21 | > 10 µM | > 10 µM | > 10 µM | > 10 µM | > 10 µM | 0 | 0 | 0 | 0.1 | 0 | 92.3% | 99.2% | 91.6% | 88.2% | 98.7% | 93.9% | 101% | 102% | 102% | 95.1% | 97.4% | 98.2% | 98.8% | 101% | 91.7% | 98.7% | 97.7% | 99.1% | 99% | 87.9% | 96.3% | 102% | 107% | 102% | 90.9%
9 | CN(C)c1cccc(-c2c3c(=O)n(-c4ccccc4Cl)[nH]c3cc(=O)n2C)c1 | > 10 µM | > 10 µM | > 10 µM | > 10 µM | > 10 µM | 0 | 0.8 | 0 | 0 | 0 | 101% | 104% | 99.6% | 102% | 104% | 100% | 98.3% | 101% | 93.1% | 84.6% | 99.8% | 96.6% | 101% | 95.2% | 93.7% | 99.2% | 104% | 94.2% | 97.2% | 87.6% | 89.9% | 91.3% | 100% | 97.7% | 92.6%
10 | COC(=O)[C@H](Cc1ccc([N+](=O)[O-])cc1)NC(=O)c1cccc2ccccc12 | > 10 µM | > 10 µM | > 10 µM | > 10 µM | > 10 µM | 0 | 0 | 0 | 0 | 0 | 94.4% | 96.7% | 90.8% | 87.4% | 101% | 99.8% | 98.7% | 99.4% | 95.6% | 89% | 94.2% | 99% | 96.6% | 99.5% | 100% | 102% | 97.1% | 105% | 101% | 107% | 101% | 95.8% | 92.8% | 100% | 109%
11 | COc1c(C)c(C(=O)c2ccc(N)c(C(=O)O)c2)n2ccccc12 | > 10 µM | > 10 µM | > 10 µM | > 10 µM | > 10 µM | 0 | 0 | 0 | 0 | 0 | 99.9% | 98.7% | 99.4% | 100% | 106% | 89.7% | 88.7% | 87.1% | 100% | 106% | 99.9% | 99.2% | 96.9% | 98.9% | 90.4% | 100% | 108% | 101% | 93.4% | 119% | 96.6% | 102% | 96% | 98.2% | 103%
12 | COc1cc(N)c(Cl)cc1C(=O)CCC1CCN(CCNS(C)(=O)=O)CC1 | > 10 µM | > 10 µM | > 10 µM | > 10 µM | > 10 µM | 0 | 0 | 0 | 0.3 | 0 | 99.7% | 101% | 100% | 93.9% | 98.3% | 95.1% | 97.3% | 95.5% | 92.3% | 92.3% | 92.6% | 101% | 94.2% | 99.2% | 92.6% | 100% | 100% | 98.2% | 89% | 95.5% | 99.6% | 92.6% | 88.3% | 99.1% | 95.9%
13 | COc1ccccc1CN[C@H]1CCCN[C@H]1c1ccccc1 | > 10 µM | > 10 µM | > 10 µM | > 10 µM | > 10 µM | 0 | 0 | 0 | 0 | 0 | 101% | 103% | 98% | 105% | 92.1% | 107% | 92.7% | 109% | 98.9% | 104% | 99% | 94.6% | 96.2% | 93.1% | 97.4% | 94.2% | 103% | 91.1% | 99.6% | 94.2% | 93.7% | 93.6% | 93.7% | 104% | 98.7%
14 | Cc1nc2ccccc2c(-c2ccc3c4c(ccnc24)CCO3)c1[C@H](OC(C)(C)C)C(=O)O | > 10 µM | > 10 µM | > 10 µM | > 10 µM | > 10 µM | 0 | 0 | 0 | 0.1 | 0 | 111% | 99.3% | 102% | 101% | 95.2% | 109% | 98.1% | 110% | 113% | 113% | 97.6% | 97.2% | 99% | 101% | 99.1% | 103% | 84.3% | 95.2% | 94.4% | 87.1% | 88.3% | 102% | 85.5% | 109% | 105%
